# Read-outs that look alike come from different tables or passages of the source.
# Experiments:
# [1] = biological target: T1, wild-type (wt) DHFR from Plasmodium falciparum (Plasmodium falciparum, UniProt P13922, N108S/R59C); experiment: Inhibition of wild-type pfDHFR (spectrophotometric, Ki); type: biochemical; conditions: Ki(wt) nM;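 note: Affinity-purified enzyme, initial reaction rates measured across a range of inhibitor concentrations, Ki obtained by nonlinear least-squares fitting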
# T1 construct: The Dihydrofolate Reductase Domain of Plasmodium falciparum Thymidylate Synthase-Dihydrofolate Reductase; made in house
# T1 sequence (P13922 10-228 R59C/N108S): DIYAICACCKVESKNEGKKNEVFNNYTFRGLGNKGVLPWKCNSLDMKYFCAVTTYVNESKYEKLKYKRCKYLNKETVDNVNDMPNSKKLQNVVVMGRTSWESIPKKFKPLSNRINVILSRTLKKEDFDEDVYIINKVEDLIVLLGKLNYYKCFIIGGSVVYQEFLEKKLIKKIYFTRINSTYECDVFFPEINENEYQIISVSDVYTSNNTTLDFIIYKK
# Description: (§1) For determination of the Ki values of a number of synthesized analogues, the assay reactions were initiated with affinity-purified enzyme (^˜0.005-0.01 U ml^−1), and the initial velocities in the presence of varying concentrations of inhibitors were analysed by non-linear least square fit using Kaleidagraph™ software.
# [2] = biological target: T2, A16V.S108T mutant (mut) of DHFR from Plasmodium falciparum (Plasmodium falciparum, UniProt A7UD81, A16V/S108T); experiment: biochemical
# T2 construct: The Dihydrofolate Reductase Domain of Plasmodium falciparum Thymidylate Synthase-Dihydrofolate Reductase; made in house
# T2 sequence (A7UD81 1-231 A16V/S108T): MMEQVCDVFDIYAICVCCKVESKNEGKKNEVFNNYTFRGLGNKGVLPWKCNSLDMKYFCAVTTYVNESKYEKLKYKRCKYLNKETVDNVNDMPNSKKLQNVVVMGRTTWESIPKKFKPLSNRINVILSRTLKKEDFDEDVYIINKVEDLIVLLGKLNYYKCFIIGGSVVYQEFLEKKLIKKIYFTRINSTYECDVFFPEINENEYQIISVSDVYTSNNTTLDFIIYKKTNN
# Description: as §1
# [3] = tested on: A16V.S108T mutant (mut) of DHFR from Plasmodium falciparum; experiment: biochemical; conditions: resistance factor
# Description: as §1
# [4] = tested on: wild-type (TM4/8.2) strain of P. falciparum; experiment: microbe, parasite or virus in culture; type: cell-based, Plasmodium falciparum; conditions: Plasmodium falciparum; wild-type strain TM4/8.2
# Description: Mol. Biochem. Parasitol. […] Science, 1976, 193, 673-675]. In vitro antimalarial activity was determined by using [^3H]-hypoxanthine incorporation method [Desjardins, R. E.; Canfield, C. J.; Haynes, J. D.; Chulay, J. D. Quantitative assessment of antimalarial activity in vitro by a semiautomated microdilution technique. Antimicrob Agents Chemother. 1979, 16, 710-718]. The drugs were initially dissolved in DMSO and diluted with the culture media. Aliquots (25 μl) of drug solution of different concentrations was placed in 96-well plate together with 200 μl of 1.5% cell suspension of parasitized erythrocytes containing 1-2% parasitemia. Final concentration of DMSO was 0.1% where there was no effect on the parasite growth. The mixtures were incubated in a 3% CO2 incubator at 37° C. After 24 h of incubation, 25 μl (0.25 μCi) of [^3H]-hypoxanthine were added to each well. The mixtures were further incubated under the same condition for 18-24 h. DNA of parasites was harvested onto glass filter paper (Unifilter, Packard, USA). The filters were dried and liquid scintillation fluid was added for radioactivity measurement in a 6-probe liquid scintillation-counter (Packard, USA).
# [5] = biological target: T3, DHFR-TS from Trypanosoma cruzi (Trypanosoma cruzi, UniProt Q27793); experiment: Inhibition of T. cruzi DHFR-TS (I50-derived Ki);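 for all read-outs here: enzymes were recombinant T. cruzi DHFR-TS and human DHFR, both expressed in E. coli and purified on a methotrexate affinity column, with dihydrofolate and NADPH as substrates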; type: biochemical; conditions: for Selectivity: human Ki / T. cruzi Ki
# T3 construct: pET 11c with the insertion of the complete ORF of the gene tc-dhfrts; made in house; host or cells: E. coli BL21 (DE3)
# T3 sequence (Q27793 whole entry): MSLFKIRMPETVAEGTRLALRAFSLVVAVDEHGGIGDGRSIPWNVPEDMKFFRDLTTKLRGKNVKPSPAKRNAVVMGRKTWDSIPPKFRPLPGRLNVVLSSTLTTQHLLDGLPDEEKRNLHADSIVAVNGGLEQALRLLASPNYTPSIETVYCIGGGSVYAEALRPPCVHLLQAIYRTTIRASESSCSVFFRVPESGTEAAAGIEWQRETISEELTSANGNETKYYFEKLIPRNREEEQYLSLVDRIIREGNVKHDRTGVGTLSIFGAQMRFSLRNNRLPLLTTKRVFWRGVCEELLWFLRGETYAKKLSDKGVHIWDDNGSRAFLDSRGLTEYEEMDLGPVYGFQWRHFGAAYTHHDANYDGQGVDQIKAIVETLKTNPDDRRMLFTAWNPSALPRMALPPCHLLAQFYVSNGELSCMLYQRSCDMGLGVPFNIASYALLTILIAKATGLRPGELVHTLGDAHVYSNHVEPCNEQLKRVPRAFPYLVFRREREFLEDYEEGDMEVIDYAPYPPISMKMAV
# human DHFR [6] = biological target: T4, human DHFR (Homo sapiens, UniProt P00374); experiment: Inhibition of human DHFR (I50-derived Ki); type: biochemical; conditions: human DHFR;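 note: recombinant human DHFR expressed in E. coli and purified by methotrexate affinity chromatography, enzyme activity followed spectrophotometrically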
# T4 construct: made in house; host or cells: E. coli M15
# T4 sequence (P00374 1-187): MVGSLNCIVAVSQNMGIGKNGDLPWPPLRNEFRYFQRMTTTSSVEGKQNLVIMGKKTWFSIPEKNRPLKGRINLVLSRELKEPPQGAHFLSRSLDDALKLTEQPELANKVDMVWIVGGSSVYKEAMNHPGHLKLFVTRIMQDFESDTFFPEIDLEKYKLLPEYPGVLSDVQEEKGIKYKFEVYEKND
# Description: (§2) Folic acid and NADPH, were purchased from Sigma. Dihydrofolate was prepared from folic acid dithionate reduction. Methotrexate (MTX) was from Lederle Laboratories. MTX sepharose CL-6B was prepared according to the protocol described by Dann. et al. IPTG came from Boehringer Manheim. The expression system used for recombinant human DHFR production, which includes the plasmid PB-E1/RB SII, SphI-HDHFR expressed in E. coli M15, was supplied by Santi, D. V (Department of Biochemistry and Biophysics and Department of Pharmaceutical Chemistry, University of California). Recombinant T. Cruzi DHFR-TS was produced using the system pET 11c with the insertion of the complete ORF of the gene tc-dhfrts. The resulting plasmid was called pET DT.
# (§3) Human and T.cruzi DHFR were produced using inducible expression systems. For human DHFR, fresh overnight cultures of E. coli M15, transformed with the plasmid, pB-E1/RB SII, SphI-HDHFR, were grown in LB and 0.1 mg/ml ampicillin medium at 28° C. For T.cruzi DHFR-TS, cultures of E. coli, BL21 (DE3) transformed with the plasmid pETDT system were grown at 37° C. The same purification protocol was used for both systems. When OD600 was at 0.8, cells pellets were collected by centrifugation, suspended in 50 ml of LB medium, containing 0.1 mg/ml of ampicillin. 10 ml of this preinocule was added to 2 litres of LB medium. Cultures were shaken at 28° C. or 37° C. (for human and T. cruzi DHFR respectively) and induction with IPTG ImM was performed when OD600 reached 0.8. After IPTG induction, cells were grown overnight in a shaker at 28° C. or 5 hours at 28° C. or 37° C. (for human and T. cruzi DHFR respectively) and then harvested by centrifugation.
# (§4) Cell pellets were suspended in sonication buffer (2× TES DHFR:TES 100 mM, 2-mercaptoethanol 150 mM, EDTA 2 mM pH=7) containing protease inhibitors.
# (§5) Crude extract was circulated through the MTX-Sepharose column at 4° C. at a flow rate of 0.2 ml/min until the protein was bound to the resin. The column was washed with an excess of buffer B (KH2PO410 mM pH 7, KC1 1M). Protein was eluted at 0.2 min/ml with an elution buffer (100 mM TES, 10 mM DTT, 2 mM EDTA, DHF 8.5 mM), the elution profile was collected in 1 ml fractions using a Pharmacia LKB Frac 200 collector. Finally, the protein was desalted using molecular size exclusion chromatography in a Pharmacia G-25 column. Fractions containing DHFR activity were pooled and concentrated by ultrafiltration using centripreps Amicon.
# (§6) The purity of the protein preparation was assessed by detection of a single band of the correct molecular weight stained with coomasie blue following a 12% SDS-PAGE. Protein concentration was determined by the method of Bradford using a BSA as a standard. DHFR activity was measured spectrophotometrically by monitoring the decrease in absorbance at 340 mm. […] One unit of enzyme, is defined as the amount of enzyme which produces 1 nmol of product per min using ε of 12300M^−1 at 340 nm.
# (§7) Inhibition of dihydrofolate reductases by 1,2-dihydro-1,3,5 triazines was analysed with T. cruzi and human DHFR.
# (§8) DHFR assays contained 30 mM dihydrofolate, 0.1 mM NADPH, 50 mM TES buffer pH 7, 75 mM 2-mercaptoethanol and specified amounts of inhibitors. The reaction was initiated by addition of 2.8 or 2.3 units of T. cruzi and human, respectively, and monitored at 340 nm.
# (§9) Selective inhibition of dihydrofolate reductase by 1,2-dihydro-1,3,5-triazines was analysed with T. cruzi and human DHFR. DHFR assays contained 30 μM dihydrofolate, 0.1 mM NADPH, 50 mM TES buffer pH 7, 75 mM β-mercaptoethanol and specified amounts of inhibitors. The reaction was initiated by addition of 2.8 or 2.3 units of T. cruzi and human enzyme, respectively, and monitored at 340 nm. […] KiI 50=[I]0.5/((1+[S])/Km)
# human DHFR [7] = experiment: Inhibition of human DHFR (I50-derived Ki); type: biochemical;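 note: recombinant human DHFR expressed in E. coli and purified by methotrexate affinity chromatography, enzyme activity followed spectrophotometrically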
# Description: as §2, §3, §4, §5, §6, §7, §8, §9
# [8] = tested on: P. falciparum 3D7 (wild-type strain); experiment: In vitro inhibition of P. falciparum 3D7; type: cell-based, Plasmodium falciparum; conditions: Plasmodium falciparum, 3D7 strain, read-out: Pf-3D7 ED50
# [9] = tested on: P. falciparum FCR3 (resistant strain containing the A16V.S108T DHFR mutant); experiment: In vitro inhibition of P. falciparum FCR3; type: cell-based, Plasmodium falciparum; conditions: Plasmodium falciparum; in vitro, FCR3 strain; read-out: Pf-FCR3 ED50
Structure (SMILES),Ki [1] [nM],Ki [2] [nM],Ki(mut)/Ki(wt) [3],IC50 [4] [nM],Ki [5] [nM],Selectivity [5],Ki (human DHFR [6]; Human Ki (I50)(nM)) [nM],Ki (human)/Ki (P. falc. mut) (human DHFR [7]),Ki (human)/Ki (P. falc. wt) (human DHFR [7]),Ki (human)/Ki (T. cruzi) (human DHFR [7]),Ki (human DHFR [6]; read-out: Human Ki (I50)) [nM],IC50 [8] [µg/mL],IC50 [9] [µg/mL]
"NC1=NCN(c2cccc(Cc3ccccc3)c2)C(N)=N1 [R2=H, X=H, Y=Bn]",9.4 ± 0.4,6 ± 0.1,0.6,403,29,2.3,66,11,7.0,2.27,,,
NC1=NC(c2ccc(F)cc2)N(c2ccc(Cl)cc2)C(N)=N1 (stereo not drawn) [(Ia) R2=p-fluorophenyl],8.6 ± 1.4,130 ± 17,15.1,359,1010,10,10600,81,1227,10.4,,,
"NC1=NCN(c2ccc(OCc3ccccc3)cc2)C(N)=N1 [R2=H, X=BnO, Y=H]",22.4 ± 1.3,28.6 ± 2.2,1.3,690,10,4.4,44,1.54,1.96,4.44,,,
NC1=NC(c2ccc(O)cc2)N(c2cccc(Cl)c2)C(N)=N1 (stereo not drawn) [(Ib) R2=4-hydroxyphenyl],59.1 ± 1,57.7 ± 7.5,1.0,3070,,,56,0.97,0.95,1.17,,,
"NC1=NC(c2cccc(O)c2)N(c2ccc(Cl)cc2)C(N)=N1 (stereo not drawn) [(Ia) R2=m-hydroxyphenyl, 1-p-chlorophenyl-2-m-hydroxyphenyl-4,6-diamino-1,2-dihydro-1,3,5-triazine]",6 ± 0.4,123 ± 13,20.6,48,,,1680,13.7,280,56,,,
"Cl.NC1=NCN(c2ccccc2)C(N)=N1 [R=H, X=H, 1-(phenyl)-4,6-diamino-1,2-dihydro-1,3,5-triazine hydrochloride]",329 ± 27,585 ± 70,1.8,,,,,2.44,4.35,,1430,,
NC1=NC(c2ccc(-c3ccccc3)cc2)N(c2ccc(Cl)cc2)C(N)=N1 (stereo not drawn) [(Ia) R2=4-biphenyl],1.3 ± 0.1,8.5,6.5,621,,,,,,,,2.2,0.68
NC1=NC(c2ccc(OCc3ccccc3)cc2)N(c2ccc(Cl)cc2)C(N)=N1 (stereo not drawn) [(Ia) R2=p-benzyloxyphenyl],0.6,4.4,7.3,107,13,85,1110,,,,,0.26,
NC1=NC(c2cccc(OCc3ccccc3)c2)N(c2ccc(Cl)cc2)C(N)=N1 (stereo not drawn) [(Ia) R2=m-benzyloxyphenyl],0.7,6.2,8.8,832,,,,,,,,0.18,0.62
"CC(C)c1ccc(C2N=C(N)N=C(N)N2c2ccc(Cl)cc2)cc1 (stereo not drawn) [(Ia) R2=p-isopropylphenyl, 1-p-chlorophenyl-2-p-isopropylphenyl-4,6-diamino-1,2-dihydro-1,3,5-triazine]",1.9 ± 0.6,15.2 ± 1.6,8.0,973,60,167,10000,661,5289,167,,,
"CCCCOc1ccc(C2N=C(N)N=C(N)N2c2ccc(OCc3ccccc3)cc2)cc1 (stereo not drawn) [1-p-benzyloxyphenyl-2-p-n-butoxyphenyl-4,6-diamino-1,2-dihydro-1,3,5-triazine]",0.8 ± 0.1,6.6 ± 0.6,8.2,384,49,4.1,203,31,253,4.1,,,
"COc1ccc(C2N=C(N)N=C(N)N2c2ccc(Cl)cc2)cc1 (stereo not drawn) [(Ia) R2=p-methoxyphenyl, 1-p-chlorophenyl-2-p-methoxyphenyl-4,6-diamino-1,2-dihydro-1,3,5-triazine]",11.4 ± 1.5,129 ± 25,11.3,424,26,212,5530,42.9,485,212,,,
"COc1ccc(C2N=C(N)N=C(N)N2c2ccc(F)cc2)cc1 (stereo not drawn) [R2=4-MeOC6H4, X=F, Y=H]",,,,,61,441,26900,,,441,,,
COc1cccc(C2N=C(N)N=C(N)N2c2cccc(Cl)c2)c1 (stereo not drawn) [(Ib) R2=3-methoxyphenyl],5.4 ± 0.2,59.1 ± 6.3,10.9,4370,240,5.3,1270,,,,,,
"CCOc1ccc(C2N=C(N)N=C(N)N2c2ccc(Cl)cc2)cc1 (stereo not drawn) [(Ia) R2=p-ethoxyphenyl, 1-p-chlorophenyl-2-p-ethoxyphenyl-4-6-diamino-1,2-dihydro-1,3,5-triazine]",1.5 ± 0.2,36 ± 6,24.3,181,70,25,1730,48,1153,24.7,,,
"NC1=NC(c2cccc(OCc3ccccc3)c2)N(c2cccc(Cc3ccccc3)c2)C(N)=N1 (stereo not drawn) [R2=3-BnOC6H4, X=H, Y=Bn, 1-m-benzylphenyl-2-m-benzyloxyphenyl-4,6-diamino-1,2-dihydro-1,3,5-triazine]",2.3 ± 0.3,7.4 ± 0.9,3.2,,32,9.1,292,39,127,9.1,,,
